Measured values: patent US20210106581A1, “Treatment Of Liver Diseases” (Melior Pharmaceuticals I, Inc., priority 2018, published 2021)
Entries after “also recorded” stand apart in the source; their conditions may differ.

What was measured:
Format in all cases: in vivo
[1] = system: male C57BL/6 mice on modified high fat diet (mHFD); test: Modified high fat diet (mHFD) mouse model, serum and liver triglycerides (Example 1); details: 30 mg/kg or 100 mg/kg i.p. once daily, 8 weeks
Procedure: The animal model was performed essentially as described in Cong et al., Life Sciences, 2008, 82, 983-990. Briefly, male C57BL/6 mice at 6 weeks of age were fed, ad libitum, a modified high fat diet (mHFD) provided by Research Diets, and described in Cong et al. One group of control animals (n=11) remained on standard diet. All animals remained on their respective diets for 23 weeks (29 weeks of age). At that time, animals continued to remain on their respective diets and treatment regimens began. The group of animals on standard diet and one group of animals on mHFD (n=9) received vehicle administered by intraperitoneal injection, once daily. Two additional groups of animals on mHFD (n=8) received Compound 102 administration by intraperitoneal injection, once daily at either 30 mg/kg or 100 mg/kg. Compound 102 was formulated in, and the vehicle used was, 20% hydroxypropyl beta cyclodextrin (HPBCD). Treatment regimen continued for an additional 8 weeks while the animals remained on their respective diets. At the end of 8 weeks of treatment, animals were fasted for 6 hours. […] Serum triglycerides and liver triglyceride were measured from the respective samples using Triglyceride assay kit (Wako Diagnostics, Richmond, Va.; Cat No 461-8992). Data were averaged and are expressed as the average SEM. Data were analyzed by two-way repeated measures ANOVA followed by a Dunnett's post hoc test. […]

[2] = system: male C57BL/6NCrl mice on modified high fat diet (mHFD); test: Extended mHFD NASH mouse study, 8-week treatment (Example 2)
Source text: The modified high fat diet (mHFD) was obtained from Research Diets, Inc. (New Brunswick, N.J.) and was formulated according to Cong et al., supra. The mHFD contained 60% fat, 14% protein, and 26% carbohydrate, with total energy content of 21.0 kJ/g. The mHFD contained a low concentration of choline bicitrate a (0.6 g/kg) and DL-methionine (1.5 g/kg). Fatty acid composition of the fats (mainly from lard) in mHFD was 36% saturated fatty acids, 45% monounsaturated fatty acids, and 19% polyunsaturated fatty acids (PUFA).
Male C57BL/6NCrl mice were obtained from Charles River Laboratories (Wilmington, Mass.). Mice were maintained in microisolator cages, in groups of no more than 4 animals per cage, and on a 12-hour light cycle. Food and water were provided ad libitum. On the last day of the study, all mice were sacrificed by cervical dislocation after a 4-hour food deprivation. Livers were rapidly dissected and part of each liver was cut and fixed in formaldehyde saline (4%) solution for histological analysis. The rest of the liver was snap frozen in liquid nitrogen, and stored at −70° C. until use.
Mice were acquired at 3-4 weeks of age (body weight of about 11-12 g). Mice were fed a standard chow (Control group) or mHFD (Model group) for 22 weeks. […] At week-22, based on body weight consideration, the mHFD-fed mice were screened and distributed in a balanced fashion into 3 groups for the compound treatment study (Table 1).
During the 8-week drug treatment phase, all animals (except for standard-chow controls) remain on the mHFD diet. During the treatment period, the summary of measurement schedule is as below: • 1) Body weight (BW) was taken once a week. • 2) Terminal blood and whole Liver were collected. • 3) Hepatic histology (NAS score) was assessed.
Livers were removed at necropsy and fixed in 10% buffered formalin. Sections were processed to paraffin by routine histological methods and 4 μm sections were stained with hematoxylin and eosin. Sections were evaluated under light microscopy by a board-certified veterinary pathologist for identification of proliferative lesions as well as severity scoring of lesions associated with steatohepatitis. The pathologist was blinded to the treatment status. Steatohepatitis parameters were scored and classified according to a standardized histological scoring system for NASH described by Kleiner et al., Hepatology, 2005, 41, 1313-1321. In brief, individual livers were evaluated for steatosis, lobular inflammation, and ballooning degeneration of hepatocytes, and given a score of (03) for steatosis and inflammation, and (02) for ballooning degeneration, using previously defined criteria (see below). An NAFLD activity score (NAS) was obtained by summing the individual parameter scores.
Steatosis Location: 0: Predominantly zone 3 (centrilobular); 1: Predominantly zone 1 (periportal); 2: Azonal (defined as when the pattern could not be fit into one of the other categories or marked architectural change); and 3: Panacinar (defined as involving all zones of the liver equally).
Inflammation: 0: No foci; 1: <2 foci per 200× field; 2: 2-4 foci/200× field; and 3: >4 foci/200× field.
Ballooning Degeneration: 0: None; 1: Few balloon cells; and 2: Many cells/prominent ballooning.
Data are expressed as the average±SEM at each week and analyzed by Unpaired T-tests as applicable using Prism® software (GraphPad Software, Inc., Las Jolla, Calif.). A p-value of less than 0.05 indicates a significant difference between treatment groups.

[3] = system: male BALB/c mice with CCl4-induced liver fibrosis; test: CCl4-induced liver fibrosis mouse model (Example 3)
Procedure: In the following study, 6 to 7 week old male BALB/c mice (25-30 g) were randomized based on body weight after 7-day of CCl4 injections (3 times). Mice were fed standard rodent chow and water ad libitum. The mice were divided into 4 groups, with 12 mice per group. The mice were administered a dose volume of 10 mL/kg (MLR-1023), 2.5 mL/kg (CCl4), each in a formulation of 20% HBPCD/saline and corn oil intraperitoneally (i.p.). The dose level of MLR-1023 was 30 and 100 mg per kg, and the dose level of CCl4 was 5%. The dose frequency of MLR-1023 was once daily (QD), and the dose frequency of CCl4 was 3 times a week (Monday, Wednesday, and Friday). The study duration was 28 days, with MLR-1023 treatment started from day 8 to day 28. CCl4 was obtained from Sigma-Aldrich (St. Louis, Mo.). A commercial kit was used for analyzing liver hydroxyproline content (BioVision, Inc.; Milpitas, Calif.). ALT and AST kits were purchased from BIOO Science (Austin, Tex.). All other reagents used in the study were of analytical grade. Male BALB/c mice were obtained from Charles River Laboratories (Wilmington, Mass.). On the last day of the study all mice were sacrificed by cervical dislocation. Blood/serum samples were collected for the assays of liver enzymes (ALT and AST). Livers were rapidly dissected and part of each liver was cut and fixed in formaldehyde saline (4%) solution for histological analysis; the remainder of the liver was snap frozen in liquid nitrogen, and stored at −70° C. until use. Starting on Day 1, animals were administered i.p. with 5% CCl4 or corn oil (vehicle for CCl4 solution) three days per week (Monday, Wednesday, and Friday) for 4 weeks. CCl4 was formulated as a […] with the dose volume of 2.5 mL/kg, and was freshly formulated on a weekly basis. Animals were weighed weekly. Test compounds and vehicle administrations were performed from Day 8 to Day 28. At the end of study, blood was drawn through retro-orbital punctures for serum collection. The whole liver was removed. One lobe was placed in a tube containing 10% formalin for histopathology, the remainder of the liver lobes were collected and snap frozen for further hydroxyproline assay. Homogenized liver samples were evaluated for hydroxyproline content to assess hepatic collagen levels. Serum was separated by centrifugation at 4° C. and analyzed immediately or stored at −70° C. Serum ALT and AST levels were determined by colorimetric method and using procedures described by the kit manufacturers. Hepatic hydroxyproline content was measured by colorimetric method and expressed as μg/mg wet liver weight. Livers were removed at necropsy and fixed in 10% buffered formalin. Sections of liver were processed routinely, sectioned at approximately 4 microns, and stained with hematoxylin and eosin (H&E) or picrosirius red (PSR). Glass slides were evaluated using light microscopy by a board-certified veterinary/toxicology pathologist in a blind manner. Two sections from each animal were examined. Five animals from each group were randomly chosen for histology analysis. The severity of histologic findings was scored using the Society of Toxicologic Pathology best practices (1=minimal, 2=mild, 3=moderate, 4=marked, 5=Severe). Fibrosis value is corresponding to the fraction of centrilobular areas affected by fibrosis (1=about <10%, 2=about 11-30%, 3=about […], 4=about […], 5=about 71-100%). Liver fibrosis is characterized by increased numbers of fibroblasts and collagen fibers in liver sinusoids that partially, or completely, bridged centrilobular areas. PSR staining severity generally correlated with the mean severity of fibrosis. Overall increased collagen deposition and bridging fibrosis are identified with PSR stain. […]

[4] = both treatments (30 and 100 mpk), H&E, FIG. 11

## Cc1cccc(Oc2cnc(=O)[nH]c2)c1 [MLR-1023, tolimidone]
[1]; 6 h fasted, FIG. 1
  circulating serum triglyceride levels: significantly reduced
[1]; FIG. 2
  accumulation of triglycerides in the liver: significantly reduced
[2]; 30 mpk (30 mg/kg) IP, vs MD-vehicle, FIG. 6
  NAFLD activity score (NAS): significantly reduced
[2]; 30 mpk IP, 8-week treatment, vs MD-vehicle, FIG. 3
  body weight: significantly reduced
[2]; 30 mpk IP, 8-week treatment, vs MD-vehicle, FIG. 4
  liver weight: significantly reduced
[2]; 30 mpk IP, vs MD-vehicle, FIG. 2
  TG content in liver: significantly reduced
[2]; 100 mpk IP, 8-week treatment, vs MD-vehicle, FIG. 3
  body weight: trend in reduction (p=0.056)
[2]; 100 mpk IP, 8-week treatment, vs MD-vehicle, FIG. 4
  liver weight: significantly reduced
[2]; 100 mpk, FIG. 7
  hepatocellular ballooning: significantly reduced
[2]; FIG. 3 legend, dose not stated
  body weight: significantly reduced
[2]; FIG. 4 legend, dose not stated
  liver weight: significantly reduced
[2]; dose not stated, FIGS. 7, 8A, 8B
  hepatocellular ballooning (histology): reduced amount
[2]; dose not stated, FIGS. 8A, 8B
  steatosis (histology): reduced
[3]; 100 mg per kg, 21-day treatment
  CCl4-induced collagen deposition: significantly reduced
[3]; 100 mg per kg, 21-day treatment, PSR
  fibrosis percentage: reduced
[3]; 100 mg per kg, H&E, vs CCl4-vehicle, FIG. 12
  scores of hepatic inflammation: reduced
[3]; 21-day treatment, summary statement
  CCl4-induced increase of liver enzymes, especially AST: mild improvement; also recorded: mild effects
[3]; 30 and 100 mg per kg i.p. QD day 8-28, vs CCl4-vehicle, dose-dependent manner, FIG. 9
  serum AST levels: trended towards improving
[3]; 30 and 100 mg per kg i.p. QD day 8-28, vs CCl4-vehicle, dose-dependent manner, FIG. 10
  hepatic hydroxyproline levels: significantly reduced
[3]; 30 and 100 mg per kg i.p. QD day 8-28, vs CCl4-vehicle, FIG. 9
  serum ALT levels: did not significantly affect
[3]; 30 and 100 mg per kg, H&E, vs CCl4-vehicle, FIG. 12
  scores of hepatic necrosis/mineralization: trended towards reducing; also recorded: reduced
[3]; [4]
  inflammation (pathologist's general assessment): still present
  necrosis (pathologist's general assessment): dose-related effect
[3]; both treatments (30 and 100 mpk), PSR, FIG. 11
  fibrosis (pathologist's general assessment): dose-related effect
